Reference: patent publication US11179348B2, “Combination comprising pterostilbene for the treatment of cancer” (FUNDACIÓN UNIVERSIDAD CATÓLICA DE VALENCIA SAN VICENTE …, priority 2015, dated 2021)
Marks after values point to notes of the source that are not given here.

Experiments:
[1] = tested on: HepG2 hepatocellular carcinoma; experiment: In vivo growth of HepG2 liver cancer xenografts; set-up: species or system human; conditions: HepG2, day 35
[2] = tested on: SK-OV-3 epithelial ovarian carcinoma; experiment: In vivo growth of SK-OV-3 ovarian cancer xenografts; set-up: species or system human; conditions: SK-OV-3, day 49
[3] = tested on: ACTH; experiment: Plasma ACTH levels (ELISA) in tumor-bearing mice; type: in vivo
Source text: Measurement of ACTH, Corticosterone, and NORA Levels.
Plasma levels of ACTH (Calbiotech, Inc., Spring Valley, Calif.), corticosterone (Kamiyama Biomedical Co., Seattle, Wash.), and NORA (IBL, Hamburg, Germany) were quantified by ELISA according to the instructions of the suppliers.

[4] = tested on: A549 cells; experiment: GSH levels and glutathione- and oxidative stress-related enzyme activities in A549 cells growing in vivo; set-up: species or system human; conditions: A549, in vivo Pter, day 35
Experimental: (§1) To measure enzyme activity, isolated tumor cells were homogenized in 0.1 M phosphate buffer (pH 7.2) at 4° C. GCL and GSS activities were measured as described previously (Obrador, E. et al. Hepatology 35, 74-81 (2002)). GPX (selenium dependent) activity was measured as described by Flohé and Gunzler (Flohe, L. & Gunzler, W. A. Methods Enzymol 105, 114-121 (1984)) using H2O2 as a substrate. GSR activity was determined as described by Akerboom and Sies (Akerboom, T. P. et al, Bull Eur Physiopathol Respir 17 Suppl, 221-227 (1981)). GGT activity was measured as described previously (Obrador, E. et al. Hepatology 35, 74-81 (2002)). GST activity was measured using an assay kit from Sigma. TXNRD activity, defined by the concentration of sodium-lipoate (disulfide) reduced to dehydrolipoate (dithiol) per milligram protein, was measured as previously described (Javvadi, P. et al. Cancer Res 70, 1941-1950 (2010)). SOD activity was measured as described by Flohé and Otting (Flohe, L. & Otting, F. Methods Enzymol 105, 93-104 (1984).) using 2 mM cyanide in the assay medium to distinguish mangano-type enzyme (SOD2) from the cuprozinc type (SOD1). CAT activity was analyzed as described by Aebi (Aebi, H. Methods Enzymol 105, 121-126 (1984)). NOX activity was measured by chemiluminescence following the methodology of Wind et al. (Wind, S. et al. Comparative pharmacology of chemically distinct NADPH oxidase inhibitors. Br J Pharmacol 161, 885-898 (2010)). Protein concentration was determined with the Pierce BCA protein assay (Fisher Scientific, Waltham, Mass.).
(§2) GSH, GSSG, NADP^+ and NADPH Determination.
(§3) GSH and GSSG were determined, following procedures previously described (Obrador, E. et al. PLoS One 9, e96466 (2014)), by LC/MS using the same equipment described above for pterostilbene determination. Cell processing was performed according to published methodology, where rapid N-ethylmaleimide derivatization was used to prevent GSH auto-oxidation (Asensi, M. et al. Anal Biochem 217, 323-328 (1994)). NADP^+ and NADPH were quantitated using an assay kit from Sigma (St. Louis, Mo.).
(§4) Isolation of Tumor Cells from Mouse Xenografts Using Enzymatic Digestion and a double Ficoll gradient.
(§5) To maximize the amount of isolated cells, avoiding the use of RFP-transfected cells and subsequent laser microdissection, an alternative methodology was set up. To maximize cell yield and viability the following combination of enzymes was used: collagenase III (200 U/ml; Sigma-Aldrich), DNase I (200 U/ml; Sigma-Aldrich) and trypsin (5 mg/ml; Invitrogen), and a non-enzymatic dissociation buffer (NEDB, Invitrogen). Briefly, mice were killed, and tumors were removed (avoiding skin, muscle and fat) into cold culture media and processed immediately. The tumors were minced into 1-3 mm fragments, which were then incubated with the dissociation solution (see above) for 30 min at 37° C. The tumor fragments were mixed up and down every 10 min using a […] micropipette with a tip cut to a diameter adapted to tissue fragment size. After each incubation period, the fragments were filtered through a […] nylon mesh cell strainer (BD Biosciences, San Diego, Calif., USA). The released cells were centrifuged at 1200 r.p.m. for 2 min and stored in cold CO2-independent medium with 30% FCS at […]. Fresh dissociation solution was added to the remaining tissue fragments for 30 min. Dissociation was stopped when no additional cells were released. The fragments were pushed through a sieve and all cells from all incubation periods were pooled and counted.
(§6) The dissociated cells were layered onto a double Ficoll gradient (Histopaque; Sigma-Aldrich; densities 1.077 and 1.119) and spun at 700 g for 30 min at room temperature. Cells removed from both interfaces were pooled and washed two times in CO2-independent medium and stored at 4° C. Debris and red blood cell elimination was improved with the dual-density gradient. […]

[5] = tested on: Caco-2 cells; experiment: GSH levels and glutathione- and oxidative stress-related enzyme activities in Caco-2 cells growing in vivo; set-up: species or system human; conditions: Caco-2, in vivo Pter, day 28
Experimental: as §1, §2, §3, §4, §5, §6

[6] = tested on: A2058 melanoma cells; experiment: NO production (NOx) in cultured A2058 cells isolated from treated mice; type: cell-based, human; conditions: 24-h cultured A2058 cells isolated from Pter-treated mice
[7] = tested on: human A375 melanoma; conditions: 20 μM Pter, 24 h, in vitro; cited from earlier work

Q: Which Tumor vol. [1] does the source give for `COc1cc(/C=C/c2ccc(O)cc2)cc(OC)c1` [Pter, trans-3,5-dimethoxy-4′-hydroxystilbene] here?
A: Its Tumor vol. is 375 ± 106* mm^3.

Q: And the Tumor vol. [2]?
A: The Tumor vol. was 214 ± 83* mm^3.

Q: And the ACTH ([3]; A549-bearing mice, day 35, 6 h circadian time)?
A: The ACTH was 79 ± 19 pg/mL plasma.

Q: And the ACTH ([3]; AsPC-1-bearing mice, day 28, 6 h circadian time)?
A: The ACTH was 112 ± 31 pg/mL plasma.

Q: And the ACTH ([3]; BxPC-3-bearing mice, day 35, 6 h circadian time)?
A: The ACTH was 68 ± 11 pg/mL plasma.

Q: What about the ACTH ([3]; Caco-2-bearing mice, day 28, 6 h circadian time) of the same compound?
A: The ACTH was 35 ± 15 pg/mL plasma.

Q: And the ACTH ([3]; HT-29-bearing mice, day 21, 6 h circadian time)?
A: Its ACTH is 44 ± 16 pg/mL plasma.

Q: What about the ACTH ([3]; HepG2-bearing mice, day 35, 6 h circadian time) of the same compound?
A: The ACTH was 116 ± 25 pg/mL plasma.

Q: And the ACTH ([3]; LNCaP-bearing mice, day 49, 6 h circadian time)?
A: The ACTH was 49 ± 15 pg/mL plasma.

Q: What about the ACTH ([3]; MCF-7-bearing mice, day 28, 6 h circadian time) of the same compound?
A: Its ACTH is 44 ± 9 pg/mL plasma.

Q: What about the ACTH ([3]; MDA-MB-231-bearing mice, day 35, 6 h circadian time) of the same compound?
A: Its ACTH is 65 ± 17 pg/mL plasma.

Q: What about the ACTH ([3]; PC-3-bearing mice, day 21, 6 h circadian time) of the same compound?
A: The ACTH was 102 ± 30 pg/mL plasma.

Q: What about the ACTH ([3]; SK-OV-3-bearing mice, day 49, 6 h circadian time) of the same compound?
A: Its ACTH is 63 ± 19 pg/mL plasma.

Q: What about the “ACTH levels in plasma” value ([3]; melanoma-bearing mice, pterostilbene treatment (FIG. 2B)) of the same compound?
A: The value was “decreased”.

Q: And the CAT [4]?
A: Its CAT is 0.3 ± 0.01 mU/10^6 cells.

Q: And the GCL [4]?
A: The GCL was 39 ± 16 mU/10^6 cells.

Q: What about the GSH [4] of the same compound?
A: The GSH was 4.7 ± 1.5 nmol/10^6 cells.

Q: And the GSS [4]?
A: Its GSS is 3.9 ± 1.0 mU/10^6 cells.

Q: And the GSSG [4]?
A: The GSSG was 0.2 ± 0.07 nmol/10^6 cells.

Q: What about the SOD1 [4] of the same compound?
A: The SOD1 was 0.5 ± 0.1 U/10^6 cells.

Q: And the SOD2 [4]?
A: The SOD2 was 0.04 ± 0.01 U/10^6 cells.

Q: What about the CAT [5] of the same compound?
A: The CAT was 0.7 ± 0.2 mU/10^6 cells.

Q: What about the GCL [5] of the same compound?
A: The GCL was 45 ± 14 mU/10^6 cells.

Q: What about the GSH [5] of the same compound?
A: The GSH was 8 ± 3 nmol/10^6 cells.

Q: And the GSS [5]?
A: Its GSS is 5.5 ± 1.9 mU/10^6 cells.

Q: And the GSSG [5]?
A: The GSSG was 0.2 ± 0.1 nmol/10^6 cells.

Q: What about the SOD1 [5] of the same compound?
A: Its SOD1 is 0.8 ± 0.3 U/10^6 cells.

Q: And the SOD2 [5]?
A: Its SOD2 is 0.04 ± 0.01 U/10^6 cells.

Q: What about the “NO production (NOx=NO2^− plus NO3^−)” value [6] of the same compound?
A: Its value is 0.15±0.04 nmol/10^6 cells.

Q: What about the “decrease in tumor cell viability” value [7] of the same compound?
A: The value was “approx. 30%”.
